The values that follow come from patent publication US5468760A, “Aralkyl-N-hydroxyureas as inhibitors of 5-lipoxygenase and oxidation of low density lipoprotein” (American Home Products Corporation, priority 1993, dated 1995).

For one experiment, the target named is T1, 5-Lipoxygenase (Homo sapiens, UniProt P09917).
T1 construct: endogenous in cells; host or cells: human whole blood from male donors (results expressed per 10^6 neutrophils)
T1 sequence (P09917 1-674): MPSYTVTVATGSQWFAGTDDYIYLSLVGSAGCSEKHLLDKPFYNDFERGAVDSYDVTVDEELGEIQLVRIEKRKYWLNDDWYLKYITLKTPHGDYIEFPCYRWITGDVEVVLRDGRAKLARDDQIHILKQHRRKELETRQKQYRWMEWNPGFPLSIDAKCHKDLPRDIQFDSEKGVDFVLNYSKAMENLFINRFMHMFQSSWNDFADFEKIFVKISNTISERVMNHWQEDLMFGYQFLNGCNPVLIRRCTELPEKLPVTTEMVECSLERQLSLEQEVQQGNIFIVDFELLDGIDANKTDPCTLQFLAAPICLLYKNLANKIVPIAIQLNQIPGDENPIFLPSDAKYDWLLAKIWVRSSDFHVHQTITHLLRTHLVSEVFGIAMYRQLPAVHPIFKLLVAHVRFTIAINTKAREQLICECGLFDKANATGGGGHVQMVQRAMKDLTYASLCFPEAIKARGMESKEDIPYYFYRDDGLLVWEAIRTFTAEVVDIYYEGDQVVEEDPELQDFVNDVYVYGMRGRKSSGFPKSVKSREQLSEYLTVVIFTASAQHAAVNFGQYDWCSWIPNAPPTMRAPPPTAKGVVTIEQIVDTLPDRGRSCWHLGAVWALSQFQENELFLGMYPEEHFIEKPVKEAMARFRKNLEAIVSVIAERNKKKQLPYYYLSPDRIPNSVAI
In words: Inhibition of 5-Lipoxygenase in Human Whole Blood (LTB4, calcium ionophore A23187). Particulars: 1 μM. It is filed as cell-based. As to the method: 1. Inhibition of 5-Lipoxygenase in Human Whole Blood
Blood is obtained in 50-100 ml quantities from male donors. White blood cell counts and differentials are made. Two ml of blood are placed in a 15 ml polypropylene test tube. Test compounds are solubilized in dimethylsulfoxide and diluted in 1:10 in 10% bovine serum albumin in phosphate buffered saline, pH 7.4 resulting in a final dimethylsulfoxide concentration of 0.1% in the blood. Then, solutions of test compounds are added to the blood in a shaking water bath at 37° C. for 10 minutes prior to the addition of 30 μM calcium ionophore (A23 187, Sigma). After ionophore administration, whole blood samples are mixed and incubated for 20 minutes at 37° C. in a shaking water bath. Incubation is terminated by placing samples in an ice bath and immediately adding ethylene glycol-bis-(β-aminoethyl ether)-N,N,N',N'-tetraaceticacid (10 mM). Samples are mixed and centrifuged at 1200 x g for 15 minutes at 4° C. Preparation of samples for evaluation by RIA or ELISA is carried out by the following protocol. Plasma is removed from sample tubes, placed in 15 ml polypropylene test tubes containing 8 ml methanol, and then vortexed to precipitate protein. Samples are stored at -70° C. overnight. The next day, samples are centrifuged at 200 x g for 15 minutes at 4° C. to pellet the precipitate. Samples are dried in a Savant SpeedVac Concentrator, Model SVC 200H, reconstituted to original volume with ice cold RIA or ELISA buffer, and stored at -70° C. until assayed. The assay for eicosanoids (LTB4, TxB2, and PGE2) is performed as described by the manufacturer of the [^3 H]-RIA kit or ELISA kit (LTB4 -Amersham, TxB2 and PGE2 -Caymen Chemical).
The total eicosanoid level in 2 ml of blood is calculated and reported as ng/10^6 neutrophils. Significance is determined by a one-way analysis of variance with least significant difference (LSD) comparisons to control (p≤0.05) and IC50 's (μM) are determined by regression analysis (Finney, 1978). Drug effects are expressed as percent change from control values.

Another experiment has as its system Lipoxygenase. The experiment is described as follows: Ex-Vivo Measurement of Lipoxygenase Inhibition in Orally Dosed Rats (LTB4). Set-up: species or system rat (male Sprague Dawley). Particulars: p.o. As to the method:
2. Ex-Vivo Measurement of Lipoxygenase Inhibition in Orally Dosed Rats
Male Sprague Dawley rats (Charles River) weighing between 180 g and 200 g were dosed orally with an invention compound (1-25 mg/kg, po) suspended in 0.5% Tween 80®. After an interval of 3 or 6 hours, the rats were anesthetized with metofane (n=4/group) and blood collected in heparinized tubes. White blood cell counts and differentials were made. One ml of blood from each animal was placed in a 5 ml plastic tube in a shaker bath at 37° C. A23187 at a final concentration of 10 μM was added to the blood and the blood vortexed and incubated for 15 min at […] with gentle shaking. Incubation was terminated by vortexing sample and centrifuging immediately at 1200 xG for 15 min at 4° C. The plasma was transferred to 15 ml plastic tubes each containing 8 ml of methanol to precipitate protein followed by vortexing. The samples were stored at -70 ° C. overnight and the next day the samples were centrifuged at 800 xG for 15 min to pellet the precipitate. The samples were dried in a Savant SpeedVac Concentrator Model SVC 200H and reconstituted to the original volume with cold RIA or ELISA buffer. The reconstituted samples were stored at -70° C. until assayed. The assay for LTB4 was performed according to the directions of the [^3 H]RIA kit or ELISA kit (Seragen). The total metabolite level in 1 ml of blood is calculated and reported as ng/10^6 neutrophils. Significance is determined by a one-way analysis of variance with LSD comparisons to control (p≤0.05).

[1] abbreviates: 10 mg/kg, pretreatment period 6 hr.

SMILES strings stand for the structures.

As to `Cc1oc(-c2ccccc2)nc1COc1cccc(CN(O)C(N)=O)c1` [Example 1, 1-Hydroxy-1-[3-(5-methyl-2-phenyl-oxazol-4-ylmethoxy)-benzyl]-urea], the inhibition at 1 µM on 5-Lipoxygenase came out at 52%. Besides, the “% Inhibition of LTB4” value in the experiment with Lipoxygenase (25 mg/kg, pretreatment period 3 hr) is 86%.
For `NC(=O)N(O)Cc1cccc(OCc2csc(-c3ccccc3)n2)c1` [Example 5, 1-Hydroxy-1-[3-(2-phenyl-thiazol-4-ylmethoxy)-benzyl]-urea], on 5-Lipoxygenase, the inhibition at 1 µM was 66%. In addition, the “% Inhibition of LTB4” value in the experiment with Lipoxygenase (setting [1]) was determined as 80%.
For `NC(=O)N(O)Cc1cccc(OCc2csc(-c3ccc(Cl)cc3)n2)c1` [Example 6, 1-Hydroxy-1-[3-[2-(4-chloro-phenyl)-thiazol-4-ylmethoxy]-benzyl]-urea], in that order: 68% and 67%.
With `Cc1oc(-c2ccc(F)cc2)nc1COc1cccc(CN(O)C(N)=O)c1` [Example 9, 1-[3-[2-(4-fluorophenyl)-5-methyl-oxazol-4-ylmethoxy]-benzyl]-1-hydroxy-urea], at 5-Lipoxygenase, the inhibition at 1 µM was 74%. The “% Inhibition of LTB4” value in the experiment with Lipoxygenase (setting [1]) worked out at 50%.
As for `Cc1oc(-c2ccccc2)nc1COc1cc(F)cc(CN(O)C(N)=O)c1` [Example 13, 1-[3-Fluoro-5-(5-methyl-2-phenyl-oxazol-4-ylmethoxy)-benzyl]-1-hydroxy-urea], the inhibition at 1 µM at 5-Lipoxygenase is 70%. Further, in the experiment with Lipoxygenase (5 mg/kg, pretreatment period 6 hr), the “% Inhibition of LTB4” value was 52%.
